Results as given in ChEMBL document CHEMBL1201862, “PubChem BioAssay data set” (2004).
Activity calls are given as the source filed them.

Experiments:
[1] = target: Troponin, cardiac muscle (Homo sapiens, UniProt P19429+P45379+P63316); assay: Fluorescence-based biochemical high throughput dose response assay for activators of the calcium sensitivity of cardiac Regulated Thin Filaments (RTF). [Related pubchem assays (depositor defined):AID493008, AID493018, AID504382, AID504383]; assay type: protein-complex assay
[2] = THP-1 cell cytotoxicity, dose response, cytotoxicity control for non-replicating M. tuberculosis project (AID 489025); assay type: functional
[3] = system: Vero; assay: cells; assay type: functional; details: Chlorocebus sabaeus
[4] = target: T1, Short transient receptor potential channel 4 (Mus musculus, UniProt Q9QUQ5); assay: calcium entry via TRPC4 opening agents – cell-based, HEK293 TRPC4/mu-opioid, Fluo-4 calcium, dose response (AID 434937); assay type: functional
T1 sequence (Q9QUQ5 whole entry): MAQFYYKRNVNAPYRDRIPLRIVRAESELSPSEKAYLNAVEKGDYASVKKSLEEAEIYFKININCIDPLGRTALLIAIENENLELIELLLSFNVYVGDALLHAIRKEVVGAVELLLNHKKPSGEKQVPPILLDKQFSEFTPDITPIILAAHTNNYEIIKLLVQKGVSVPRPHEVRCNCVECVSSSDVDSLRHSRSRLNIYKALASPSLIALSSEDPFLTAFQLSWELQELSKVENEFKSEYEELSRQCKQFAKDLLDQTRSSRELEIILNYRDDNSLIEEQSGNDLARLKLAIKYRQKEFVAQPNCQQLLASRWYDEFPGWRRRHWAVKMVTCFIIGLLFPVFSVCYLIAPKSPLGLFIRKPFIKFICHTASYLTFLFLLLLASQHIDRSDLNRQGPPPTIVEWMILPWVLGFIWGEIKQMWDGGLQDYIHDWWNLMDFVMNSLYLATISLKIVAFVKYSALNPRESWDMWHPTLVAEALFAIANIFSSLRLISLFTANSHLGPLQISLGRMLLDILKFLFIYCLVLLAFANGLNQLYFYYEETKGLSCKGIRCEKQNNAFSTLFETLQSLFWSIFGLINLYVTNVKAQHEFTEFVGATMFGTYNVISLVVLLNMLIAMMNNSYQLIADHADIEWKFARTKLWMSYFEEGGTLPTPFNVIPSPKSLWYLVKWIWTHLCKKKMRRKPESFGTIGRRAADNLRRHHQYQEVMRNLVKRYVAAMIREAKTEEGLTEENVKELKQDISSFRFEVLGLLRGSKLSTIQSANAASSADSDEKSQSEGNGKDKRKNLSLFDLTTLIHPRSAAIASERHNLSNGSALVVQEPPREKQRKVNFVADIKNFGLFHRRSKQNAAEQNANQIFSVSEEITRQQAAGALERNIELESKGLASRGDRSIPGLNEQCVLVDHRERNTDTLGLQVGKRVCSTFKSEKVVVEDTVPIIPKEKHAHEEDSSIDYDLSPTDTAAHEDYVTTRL

[5] = target: T2, Streptokinase A (Streptococcus pyogenes serotype M1, UniProt P10520); assay: viability-normalized secreted streptokinase activity reduction – plasminogen activation absorbance, OD405, dose response (AID 1914); assay type: functional, Streptococcus pyogenes M1 GAS;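 note: secreted streptokinase activity via plasminogen activation per viability signal from cell pellet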
T2 sequence (P10520 whole entry): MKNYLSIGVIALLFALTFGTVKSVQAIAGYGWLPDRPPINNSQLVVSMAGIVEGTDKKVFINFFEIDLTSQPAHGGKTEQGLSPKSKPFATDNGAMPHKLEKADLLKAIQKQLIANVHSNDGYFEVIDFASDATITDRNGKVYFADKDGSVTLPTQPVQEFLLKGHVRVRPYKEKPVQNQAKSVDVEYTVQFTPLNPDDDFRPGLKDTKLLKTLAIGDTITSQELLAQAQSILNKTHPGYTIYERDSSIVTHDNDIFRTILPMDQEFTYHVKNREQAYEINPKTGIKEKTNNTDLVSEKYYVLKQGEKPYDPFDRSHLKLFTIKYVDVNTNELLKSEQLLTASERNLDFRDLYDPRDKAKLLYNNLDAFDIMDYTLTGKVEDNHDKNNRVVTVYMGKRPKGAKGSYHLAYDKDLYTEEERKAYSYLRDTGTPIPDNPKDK

[6] = Vero E6 cell cytotoxicity, dose response, cytotoxicity control for non-replicating M. tuberculosis project, secondary assay (AID 492998); assay type: functional, VeroE6; details: Vero C1008
[7] = system: Streptococcus; assay: GAS UMAA2166 growth inhibition – luminescence, BacTiterGlo, counter-screen for streptokinase expression inhibitor project, dose response (AID 1915); assay type: functional, organism-based;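 note: potency for reduction of bacterial viability or growth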
[8] = HepG2 cell cytotoxicity, dose response, cytotoxicity control for non-replicating M. tuberculosis project (AID 489018); assay type: functional; details: Mycobacterium tuberculosis
[9] = system: Streptococcus sp. 'group A'; assay: Streptococcus pyogenes SK(-)GAS viability under kanamycin – luminescence, BacTiterGlo, confirmation, counter-screen for streptokinase expression inhibitor project, dose response (AID 1900); assay type: functional, organism-based
[10] = target: T3, Corticotropin-releasing factor receptor 2/Corticotropin-releasing factor-binding protein (Homo sapiens, UniProt P24387+Q13324); assay: activators of CRF receptor 2 with binding protein – uHTS hits, confirmation (AID 602473); assay type: functional; details: read-out: EC50_Mean
T3 sequence (Q13324 whole entry): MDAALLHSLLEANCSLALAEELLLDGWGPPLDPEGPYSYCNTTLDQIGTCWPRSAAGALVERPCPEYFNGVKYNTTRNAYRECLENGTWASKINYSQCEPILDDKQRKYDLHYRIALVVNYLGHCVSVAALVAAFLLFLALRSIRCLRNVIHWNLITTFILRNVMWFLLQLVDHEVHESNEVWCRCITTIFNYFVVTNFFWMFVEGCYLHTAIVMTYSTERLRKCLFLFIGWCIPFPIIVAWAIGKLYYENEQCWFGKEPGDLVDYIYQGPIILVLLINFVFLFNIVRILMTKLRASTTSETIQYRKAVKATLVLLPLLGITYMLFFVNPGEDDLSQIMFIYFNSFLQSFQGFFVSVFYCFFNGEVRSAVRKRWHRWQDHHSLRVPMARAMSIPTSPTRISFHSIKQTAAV
T3 sequence (P24387 whole entry): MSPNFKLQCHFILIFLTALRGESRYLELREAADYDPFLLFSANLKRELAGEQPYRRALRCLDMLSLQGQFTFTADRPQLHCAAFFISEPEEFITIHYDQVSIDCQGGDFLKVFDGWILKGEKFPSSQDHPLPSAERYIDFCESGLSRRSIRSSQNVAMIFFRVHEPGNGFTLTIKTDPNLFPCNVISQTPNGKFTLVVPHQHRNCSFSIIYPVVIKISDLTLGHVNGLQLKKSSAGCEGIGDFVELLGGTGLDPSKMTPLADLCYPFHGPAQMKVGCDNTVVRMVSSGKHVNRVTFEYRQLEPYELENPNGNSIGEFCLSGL

[11] = cells; assay type: functional
[12] = target: T4, Kappa-type opioid receptor (Homo sapiens, UniProt P41145); assay: SAR analysis of Antagonists of the Kappa Opioid Receptor (KOR) using an Image-Based Assay - Set 3. [Related pubchem assays (depositor defined):AID1777, AID1785]; assay type: functional
[13] = target: T4, Kappa-type opioid receptor; assay: SAR analysis of small molecule antagonists of the kappa opioid receptor via a luminescent beta-arrestin assay - Set 3. [Related pubchem assays (depositor defined):AID1777, AID1778, AID1785, AID1786, AID1966, AID2133, AID2136, AID2285, AID2495]; assay type: functional
[14] = target: Mu-type opioid receptor (Homo sapiens, UniProt P35372); assay: SAR Analysis of Antagonists of the MOR Receptor using an Image-Based Assay - Set 3. [Related pubchem assays (depositor defined):AID1777, AID1785, AID1786, AID1966, AID2133, AID2136, AID2284, AID2285, AID2420]; assay type: functional
[15] = target: Delta-type opioid receptor (Homo sapiens, UniProt P41143); assay: SAR Analysis of Antagonists of the DOR Receptor using an Image-Based Assay - Set 3. [Related pubchem assays (depositor defined):AID1777, AID1785]; assay type: functional;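 note: U2OS cells expressing DOR1 and beta-arrestin GFP stimulated with 100 nM SNC80; imaging of GFP-tagged beta-arrestin moving into spots after receptor activation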
Sequence of Delta-type opioid receptor (P41143 whole entry): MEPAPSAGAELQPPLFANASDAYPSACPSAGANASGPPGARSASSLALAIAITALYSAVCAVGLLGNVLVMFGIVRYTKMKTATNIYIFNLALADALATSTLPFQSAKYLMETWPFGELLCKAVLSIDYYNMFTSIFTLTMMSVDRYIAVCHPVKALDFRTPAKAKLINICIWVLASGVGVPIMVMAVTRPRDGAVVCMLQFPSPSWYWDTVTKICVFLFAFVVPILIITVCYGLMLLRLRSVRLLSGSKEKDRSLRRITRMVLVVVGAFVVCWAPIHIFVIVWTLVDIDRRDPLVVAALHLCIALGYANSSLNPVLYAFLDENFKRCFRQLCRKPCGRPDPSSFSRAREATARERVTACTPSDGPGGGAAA

T4 sequence (P41145 whole entry): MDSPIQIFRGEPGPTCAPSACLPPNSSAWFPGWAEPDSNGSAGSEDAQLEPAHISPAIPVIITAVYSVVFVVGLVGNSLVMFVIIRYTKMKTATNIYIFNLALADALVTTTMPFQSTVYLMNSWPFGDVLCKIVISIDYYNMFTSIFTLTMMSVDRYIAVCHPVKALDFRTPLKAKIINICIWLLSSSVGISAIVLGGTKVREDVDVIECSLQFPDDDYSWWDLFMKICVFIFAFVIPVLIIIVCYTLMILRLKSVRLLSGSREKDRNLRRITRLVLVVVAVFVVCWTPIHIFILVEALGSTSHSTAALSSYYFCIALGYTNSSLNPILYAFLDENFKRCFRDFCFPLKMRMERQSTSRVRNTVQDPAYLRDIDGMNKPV
Sequence of Mu-type opioid receptor (P35372 whole entry): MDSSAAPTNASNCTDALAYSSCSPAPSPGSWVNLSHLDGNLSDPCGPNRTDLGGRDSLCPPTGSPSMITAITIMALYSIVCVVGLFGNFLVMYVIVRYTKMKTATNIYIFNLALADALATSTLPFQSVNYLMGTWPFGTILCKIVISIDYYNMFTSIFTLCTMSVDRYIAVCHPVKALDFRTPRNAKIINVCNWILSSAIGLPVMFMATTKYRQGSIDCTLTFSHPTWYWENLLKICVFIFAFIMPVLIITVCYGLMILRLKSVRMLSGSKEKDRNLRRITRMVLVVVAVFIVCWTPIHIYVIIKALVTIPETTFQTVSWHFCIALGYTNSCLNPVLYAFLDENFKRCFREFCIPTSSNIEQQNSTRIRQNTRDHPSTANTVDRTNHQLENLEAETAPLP

With `N=C1c2ccccc2CN1c1ccc(S(=O)(=O)N2CCCCC2)cc1` the EC50 [1] was > 71.5 µM (inactive).

In the case of `CC1(C(=O)NC(=S)NNC(=O)c2ccncc2)CCCCC1`, the CC50 [2] is reported as 9 µM (active), the CC50 [3] is reported as > 25 µM (active) and the EC50 [4] is reported as 11.9 µM (active). The EC50 [5] was > 150 µM (not active), the CC50 [6] was 13.4 µM (active) and the EC50 [7] was 21.1 µM (active). The CC50 [8] was > 20 µM (active), the EC50 [9] was 1.59 µM (active) and the EC50 [10] was 4.91 µM (active). For the same compound, the IC50 [11] was 1.06 µM (active).

For `COc1ccc(S(=O)(=O)NCc2ccc(C(=O)NCCN(Cc3ccc(Br)cc3)C(C)C)cc2)cc1`, the IC50 [12] was 1.38 µM (active), the IC50 [13] was 13.5 µM (inactive) and the IC50 [14] was > 32 µM (inactive). The IC50 [15] was > 32 µM (inactive).

In the case of `Cc1cccc(S(=O)(=O)NCc2ccc(C(=O)NCCN(Cc3ccccc3)C(C)C)cc2)c1`, the IC50 [12] is reported as 0.872 µM (active), the IC50 [13] is reported as 2.32 µM (active) and the IC50 [14] is reported as 7.99 µM (active). For the same compound, the IC50 [15] was > 32 µM (inactive).
